Results from the NIST ThermoML archive (doi:10.1016/j.jct.2005.04.013).
Numbers after ± are expanded uncertainties.

Experiment: activity coefficient (dimensionless); of the first substance listed, at infinite dilution; xn = mol fraction of the nth substance listed
Conditions: 363.65 K; Liquid; x1 = 0

| activity coefficient | SMILES |
| --- | --- |
| 0.81 ± 0.06 | CCO [ethanol] + CCCCCCCC[n+]1ccn(C)c1.F[B-](F)(F)F |
| 1.25 ± 0.08 | CCO [ethanol] + CCCCn1cc[n+](C)c1.F[B-](F)(F)F |
| 0.2 ± 0.07 | CCO [ethanol] + CCCCn1cc[n+](C)c1.[Cl-] |
| 1.33 ± 0.09 | CCO [ethanol] + CCn1cc[n+](C)c1.F[B-](F)(F)F |
| 0.4 ± 0.07 | CO [methanol] + CCn1cc[n+](C)c1.F[B-](F)(F)F |
| 1.09 ± 0.06 | C1CCOC1 [tetrahydrofuran] + CCCCCCCC[n+]1ccn(C)c1.F[B-](F)(F)F |
| 2 ± 0.18 | C1CCOC1 [tetrahydrofuran] + CCCCn1cc[n+](C)c1.F[B-](F)(F)F |
| 3.81 ± 0.35 | C1CCOC1 [tetrahydrofuran] + CCCCn1cc[n+](C)c1.[Cl-] |
| 3.48 ± 0.32 | C1CCOC1 [tetrahydrofuran] + CCn1cc[n+](C)c1.F[B-](F)(F)F |
| 0.68 ± 0.06 | O [water] + CCCCCCCC[n+]1ccn(C)c1.F[B-](F)(F)F |
| 0.61 ± 0.06 | O [water] + CCCCn1cc[n+](C)c1.F[B-](F)(F)F |
| 0.1 | O [water] + CCCCn1cc[n+](C)c1.[Cl-] |
| 0.45 ± 0.07 | O [water] + CCn1cc[n+](C)c1.F[B-](F)(F)F |
